{"source": "patent US10154988B2", "about": "“Methods and compositions for treating schizophrenia” (The Johns Hopkins University, priority 2012, dated 2018)", "key": {"[1]": {"system": "aMCI subjects", "assay": "neuropsychological tests outside the scanner (Buschke, Benton, Verbal Paired Associates)", "format": "in vivo, human", "conditions": "125 mg twice a day for two weeks", "description": "All participants undergo neuropsychological evaluation at the time of assessment for treatment efficacy (Visits 1 and 2), as well as at the Baseline Visit. The evaluation occurs outside of the scanner and includes the Buschke Selective Reminding Test (Buschke and Fuld, 1974) and the Verbal Paired Associates subtest, the Logical Memory subtest, the Visual Reproduction subtest of the Wechsler Memory Scale-Revised (WMS-R) (Wechsler, 1997), and the Benton Visual Retention Test, as these tasks are particularly sensitive to medial temporal lobe function and early memory problems (Marquis et al., 2002 and Masur et al., 1994). Additionally, subjects are asked to complete tests of more general cognitive function such as tests to assess general mental status, executive function, attention and general naming ability. All neuropsychological tests are administered by a trained research assistant during a 60-minute session. As the three neuropsychological assessments in this study occur within a time period of 8 weeks, different versions of the neuropsychological tests are used to minimize test specific practice effects. Breaks are provided to the subject as needed."}, "[2]": {"system": "aMCI subjects", "assay": "explicit 3-alternative forced choice task (lure-based memory performance)", "format": "in vivo, human"}, "[3]": {"conditions": "cited from earlier work"}, "[4]": {"system": "aged-impaired (AI) rats", "assay": "eight-arm Radial Arm Maze task, one-hour delay (levetiracetam, valproate, combination)", "format": "in vivo, rat", "conditions": "for average no. of errors ± SEM in retention test: one-hour delay, vehicle 2.00±0.42; for reducing the number of errors in the radial arm maze: levetiracetam on its own", "procedure": "The effects of levetiracetam on the spatial memory retention of aged-impaired (AI) rats are assessed in a Radial Arm Maze (RAM) behavioral task using vehicle control and five different dosage levels of levetiracetam (1.25 mg/kg/day, 2.5 mg/kg/day, 5 mg/kg/day, 10 mg/kg/day and 20 mg/kg/day). RAM behavioral tasks are preformed on ten AI rats. All six treatment conditions are tested on all ten rats, as described above for the MWM test. The RAM apparatus used consists of eight equidistantly-spaced arms. An elevated maze arm (7 cm width×75 cm length) projects from each facet of an octagonal center platform (30 cm diameter, 51.5 cm height). Clear side walls on the arms are 10 cm high and are angled at 65° to form a trough. A food well (4 cm diameter, 2 cm deep) is located at the distal end of each arm. Froot Loops™ (Kellogg Company) are used as rewards. Blocks constructed of Plexiglas™ (30 cm height×12 cm width) can be positioned to prevent entry to any arm. Numerous extra maze cues surrounding the apparatus are also provided. The AI rats are initially subjected to a pre-training test (Chappell et al. Neuropharmacology 37: 481-487, 1998). The pre-training test consists of a habituation phase (4 days), a training phase on the standard win-shift task (18 days) and another training phase (14 days) in which a brief delay is imposed between presentation of a subset of arms designated by the experimenter (e.g., 5 arms available and 3 arms blocked) and completion of the eight-arm win-shift task (i.e., with all eight arms available). In the habituation phase, rats are familiarized to the maze for an 8-minute session on four consecutive days. In each of these sessions food rewards are scattered on the RAM, initially on the center platform and arms and then progressively confined to the arms. After this habituation phase, a standard training protocol is used, in which a food pellet is located at the end of each arm. Rats receive one trial each day for 18 days. Each daily trial terminates when all eight food pellets have been obtained or when either 16 choices are made or 15 minutes had elapsed. After completion of this training phase, a second training phase is carried out in which the memory demand is increased by imposing a brief delay during the trial. At the beginning of each trial, three arms of the eight-arm maze are blocked. Rats are allowed to obtain food on the five arms to which access is permitted during this initial ‘information phase’ of the trial. Rats are then removed from the maze for 60 seconds, during which time the barriers on the maze are removed, thus allowing access to all eight arms. Rats are then placed back onto the center platform and allowed to obtain the remaining food rewards during this ‘retention test’ phase of the trial. The identity and configuration of the blocked arms varies across trials. The number of “errors” the AI rats make during the retention test phase is tracked. An error occurs in the trial if the rats enter an arm from which food had already been retrieved in the pre-delay component of the trial, or if it re-visits an arm in the post-delay session that has already been visited. After completion of the pre-training test, rats are subjected to trials with more extended delay intervals, i.e., a one-hour delay, between the information phase (presentation with some blocked arms) and the retention test (presentation of all arms). During the delay interval, rats remain off to the side of the maze in the testing room, on carts in their individual home cages. AI rats are pretreated 30-40 minutes before daily trials with a one-time shot of the following six conditions: 1) vehicle control (0.9% saline solution); 2) levetiracetam (1.25 mg/kg/day); 3) levetiracetam (2.5 mg/kg/day); 4) levetiracetam (5 mg/kg/day); 5) levetiracetam (10 mg/kg/day); 6) levetiracetam (20 mg/kg/day); […] Injections are given every other day with intervening washout days. Each AI rat is treated with all six conditions within 23 days of testing. […]"}}, "note": "Entries after “also recorded” stand apart in the source; their conditions may differ."}
{"smiles": "CC[C@@H](C(N)=O)N1CCCC1=O", "note": "[levetiracetam, (2S)-2-(2-oxopyrrolidin-1-yl) butanamide]", "values": [{"measurement": "performance in Benton Visual Retention Test", "setting": "[1]", "result": "fails to rescue performance"}, {"measurement": "performance in Buschke Selective Reminding Test—Delayed Recall", "setting": "[1]", "result": "fails to rescue performance"}, {"measurement": "performance in Verbal Paired Associates Test—Delayed Recall", "setting": "[1]", "result": "fails to rescue performance"}, {"measurement": "performance in Verbal Paired Associates Test—Recognition", "setting": "[1]", "result": "fails to rescue performance"}, {"measurement": "performance in the explicit 3-alternative forced choice task", "setting": "[2]; 62.5 mg BID for two weeks vs placebo, p=0.041", "result": "further improved performance in cognitive tests; also recorded: improves significantly"}, {"measurement": "performance in the explicit 3-alternative forced choice task", "setting": "[2]; 125 mg twice a day for two weeks vs placebo, p=0.039", "result": "improves significantly"}, {"measurement": "performance in the explicit 3-alternative forced choice task", "setting": "[2]; 250 mg BID for two weeks vs placebo, p=0.2396", "result": "does not significantly improve"}, {"measurement": "plasma half-life expected in elderly", "setting": "[3]; elderly, decreased renal function", "result": "9 to 10", "unit": "h"}, {"measurement": "time of peak plasma concentrations", "setting": "[3]; following oral administration", "result": "about 1 hour"}, {"measurement": "plasma half-life", "setting": "[3]; humans", "result": "approximately 7±1 hour"}, {"measurement": "time to steady state", "setting": "[3]; multiple twice-daily dosing", "result": 2, "unit": "days"}, {"measurement": "absorption after oral administration", "setting": "[3]; oral", "result": "rapidly and almost completely absorbed"}, {"measurement": "effect of food on bioavailability", "setting": "[3]; oral", "result": "not affected by food"}, {"measurement": "average no. of errors ± SEM in retention test", "setting": "[4]; 5 mg/kg/day i.p., t(9)=2.18, p=0.057", "result": "0.75±0.32"}, {"measurement": "average no. of errors ± SEM in retention test", "setting": "[4]; 10 mg/kg/day i.p., t(9)=2.37, p=0.042", "result": "0.80±0.27"}, {"measurement": "performance of AI rats in the radial maze task", "setting": "[4]; levetiracetam 20 mg/kg", "result": "fails to improve the performance"}, {"measurement": "reducing the number of errors in the radial arm maze", "setting": "[4]; 1.25 mg/kg i.p.", "result": "not at 1.25 mg/kg or 2.5 mg/kg"}, {"measurement": "reducing the number of errors in the radial arm maze", "setting": "[4]; 2.5 mg/kg i.p.", "result": "not at 1.25 mg/kg or 2.5 mg/kg"}, {"measurement": "reducing the number of errors in the radial arm maze", "setting": "[4]; 5-10 mg/kg i.p.", "result": "effective in reducing the number of errors"}]}
